This test deals with T1, Horseradish peroxidase (HRP), soluble HRP.
T1 construct: gene PRXC1A; free (soluble) enzyme
Briefly: absorbance at […] nm, Lineweaver-Burk plot. Format: biochemical, Armoracia rusticana. As to conditions: soluble (free) enzyme; co-substrate H2O2 (8 mM in standard assay); 20 mM sodium acetate pH 6.0.

Molecules are shown by their SMILES.

As a reminder, the Km is the substrate concentration at which the rate is half of its maximum. Regarding `COc1ccccc1O` [guaiacol], the Michaelis-Menten constant (Km) amounted to 35.5 mM.

(Values after PMC11568336, “Biochemical properties of immobilized horseradish peroxidase on ceramic and its application in removal of azo dye” (Scientific Reports, 2024).)
